Converted amounts (≈) assume the structure as drawn.
Assays:
[1] = test system: RPMI-8226; experiment: Cytotoxicity against human RPMI8226 assessed as cell growth at high concentration; format: functional
[2] = test system: Aspergillus niger; experiment: Antifungal activity against Aspergillus niger MTCC 282; format: functional
[3] = test system: CCRF-CEM; experiment: Cytotoxicity against human CCRF-CEM assessed as cell growth at high concentration; format: functional
[4] = test system: NCI-H460; experiment: Cytotoxicity against human NCI-H460 assessed as cell growth at high concentration; format: functional
[5] = test system: Human immunodeficiency virus 2; experiment: Antiviral activity against HIV2 ROD infected in MT4 cells assessed as inhibition of virus-induced cytopathogenicity by MTT assay; format: functional, organism-based; details: Human immunodeficiency virus 2, ISOLATE ROD
[6] = test system: MCF7; experiment: Cytotoxicity against human MCF7 assessed as cell growth at high concentration; format: functional
[7] = test system: Candida albicans; experiment: Antifungal activity against Candida albicans MTCC 227; format: functional
[8] = test system: EKVX; experiment: Cytotoxicity against human EKVX assessed as cell growth at high concentration; format: functional
[9] = test system: NCI-H322M; experiment: Cytotoxicity against human NCI-H322M assessed as cell growth at high concentration; format: functional
[10] = Cytotoxicity against human MT4 cells by MTT assay; format: cell-based
[11] = test system: Candida albicans; experiment: Antifungal activity against Candida albicans MTCC 227 at 250 ug/ml after 74 hrs by Kirby-Bauer method; format: functional; details: MTCC 227, 74 h, read-out: IZ
[12] = test system: NCI-H23; experiment: Cytotoxicity against human NCI-H23 assessed as cell growth at high concentration; format: functional
[13] = test system: Human alphaherpesvirus 3; experiment: Antiviral activity against Varicella-zoster virus Oka expressing thymidine kinase infected in HEL cells assessed as reduction in plaque formation; format: functional, organism-based; details: Human alphaherpesvirus 3, strain Oka vaccine
[14] = test system: Aspergillus clavatus; experiment: Antifungal activity against Aspergillus clavatus MTCC 1323 at 250 ug/ml after 74 hrs by Kirby-Bauer method; format: functional; details: MTCC 1323, 74 h, read-out: IZ
[15] = test system: 786-0; experiment: Cytotoxicity against human 786-0 assessed as cell growth at high concentration; format: functional
[16] = test system: TK-10; experiment: Cytotoxicity against human TK10 assessed as cell growth at high concentration; format: functional
[17] = test system: NCI-H226; experiment: Cytotoxicity against human NCI-H226 assessed as cell growth at high concentration; format: functional
[18] = test system: HCT-116; experiment: Cytotoxicity against human HCT116 assessed as cell growth at high concentration; format: functional
[19] = test system: OVCAR-3; experiment: Cytotoxicity against human OVCAR3 assessed as cell growth at high concentration; format: functional
[20] = test system: Staphylococcus aureus; experiment: Antibacterial activity against Staphylococcus aureus MTCC 96 at 250 ug/ml after 24 hrs by Kirby-Bauer method; format: functional; details: MTCC 96, 24 h, read-out: IZ
[21] = test system: IGROV-1; experiment: Cytotoxicity against human IGROV1 assessed as cell growth at high concentration; format: functional
[22] = test system: BT-549; experiment: Cytotoxicity against human BT549 assessed as cell growth at high concentration; format: functional
[23] = test system: SNB-19; experiment: Cytotoxicity against human SNB19 assessed as cell growth at high concentration; format: functional
[24] = test system: HL-60(TB); experiment: Cytotoxicity against human HL-60(TB) assessed as cell growth at high concentration; format: functional

Compound	Activity [1] [%]	MIC [2] [µg/mL]	Activity [3] [%]	Activity [4] [%]	IC50 [5] [µg/mL]	Activity [6] [%]	MIC [7] [µg/mL]	Activity [8] [%]	Activity [9] [%]	CC50 [10] [µg/mL]	zone of inhibition at 250 µg/mL [11] [mm]	Activity [12] [%]	EC50 [13] [µg/mL]	zone of inhibition at 250 µg/mL [14] [mm]	Activity [15] [%]	Activity [16] [%]	Activity [17] [%]	Activity [18] [%]	Activity [19] [%]	zone of inhibition at 250 µg/mL [20] [mm]	also measured
Cc1ccc(-[n+]2noc([O-])c2CN2CCN(c3cccc(Cl)c3)CC2)cc1	72.54	500 (≈ 1300 µM)	72.82	89.39	> 27.4	92.1	200 (≈ 520 µM)	88.38	106.64	27.4 (≈ 71.3 µM)	21	95.83	> 20	24	101.4	119.81	79.22	82.24	88.44	22	Activity [21]: 98.49%; Activity [22]: 98.47%; Activity [23]: 99.85%
Cc1ccc(-[n+]2noc([O-])c2CN2CCNCC2)cc1	100.12	200 (≈ 729 µM)	102.79	95.72	> 32.6	90.74	200 (≈ 729 µM)	104.33	103.75	32.6 (≈ 119 µM)	21	101.63	> 20	24	105.96	102.68	84.85	108.38	101.12	17	Activity [24]: 118.68%; Activity [21]: 101.72%; Activity [22]: 110.58%; Activity [23]: 103.47%

Source: ChEMBL document CHEMBL3044741, “Synthesis of novel biologically active methylene derivatives of sydnones” (Med Chem Res, 2013)
